Assay results taken from PubChem BioAssay (NCI).
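48-hour exposure; five concentrations; linearly interpolated endpoints. TGI: total growth inhibition.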

Experiments:
Assay in all cases: growth of human tumour cells (NCI), 48 h
HCT-116 colon = test system: HCT-116 colon
SNB-75 CNS = test system: SNB-75 CNS
RXF 393 renal = test system: RXF 393 renal
HOP-92 NSCLC = test system: HOP-92 NSCLC
PC-3 prostate = test system: PC-3 prostate
RPMI-8226 leukemia = test system: RPMI-8226 leukemia
786-0 renal = test system: 786-0 renal
MOLT-4 leukemia = test system: MOLT-4 leukemia
ACHN renal = test system: ACHN renal
IGROV1 ovarian = test system: IGROV1 ovarian
DU-145 prostate = test system: DU-145 prostate
OVCAR-8 ovarian = test system: OVCAR-8 ovarian
OVCAR-5 ovarian = test system: OVCAR-5 ovarian
SK-MEL-28 melanoma = test system: SK-MEL-28 melanoma
HT29 colon = test system: HT29 colon
MDA-N = test system: MDA-N
HS 578T breast = test system: HS 578T breast
UACC-62 melanoma = test system: UACC-62 melanoma
NCI-H460 lung = test system: NCI-H460 lung
M14 melanoma = test system: M14 melanoma
NCI-H522 lung = test system: NCI-H522 lung
U251 CNS = test system: U251 CNS
HCC-2998 colon = test system: HCC-2998 colon
HL-60(TB) leukemia = test system: HL-60(TB) leukemia
EKVX NSCLC = test system: EKVX NSCLC
NCI/ADR-RES ovarian = test system: NCI/ADR-RES ovarian
MCF7 breast = test system: MCF7 breast
KM12 colon = test system: KM12 colon
T-47D breast = test system: T-47D breast
CCRF-CEM leukemia = test system: CCRF-CEM leukemia
SF-295 CNS = test system: SF-295 CNS
K-562 leukemia = test system: K-562 leukemia
SF-268 CNS = test system: SF-268 CNS
CAKI-1 renal = test system: CAKI-1 renal
SNB-19 CNS = test system: SNB-19 CNS
UO-31 renal = test system: UO-31 renal
BT-549 breast = test system: BT-549 breast
TK-10 renal = test system: TK-10 renal
MALME-3M melanoma = test system: MALME-3M melanoma
OVCAR-4 ovarian = test system: OVCAR-4 ovarian
SK-MEL-2 melanoma = test system: SK-MEL-2 melanoma
HOP-62 NSCLC = test system: HOP-62 NSCLC
MDA-MB-435 = test system: MDA-MB-435
SK-OV-3 ovarian = test system: SK-OV-3 ovarian
SN12C renal = test system: SN12C renal
SR leukemia = test system: SR leukemia
SK-MEL-5 melanoma = test system: SK-MEL-5 melanoma
MDA-MB-231 breast = test system: MDA-MB-231 breast
A498 renal = test system: A498 renal
COLO 205 colon = test system: COLO 205 colon
LOX IMVI melanoma = test system: LOX IMVI melanoma
UACC-257 melanoma = test system: UACC-257 melanoma
NCI-H23 lung = test system: NCI-H23 lung
SW-620 colon = test system: SW-620 colon
NCI-H226 lung = test system: NCI-H226 lung
HCT-15 colon = test system: HCT-15 colon
A549 NSCLC = test system: A549 NSCLC
SF-539 CNS = test system: SF-539 CNS
OVCAR-3 ovarian = test system: OVCAR-3 ovarian

What does the source list for `Clc1ccccc1-c1nc2ccc(C34CC5CC(CC(C5)C3)C4)cc2[nH]1`?
TGI (HCT-116 colon): > 100 µM; TGI (SNB-75 CNS): 21.6 µM; TGI (RXF 393 renal): 20.8 µM; TGI (HOP-92 NSCLC): 27.1 µM; TGI (PC-3 prostate): 34 µM; TGI (RPMI-8226 leukemia): > 100 µM; TGI (786-0 renal): 25.9 µM; TGI (MOLT-4 leukemia): > 100 µM; TGI (ACHN renal): 28.8 µM; TGI (IGROV1 ovarian): 50.4 µM; TGI (DU-145 prostate): > 100 µM; TGI (OVCAR-8 ovarian): 22.8 µM; TGI (OVCAR-5 ovarian): 54 µM; TGI (SK-MEL-28 melanoma): > 100 µM; TGI (HT29 colon): 37.9 µM; TGI (MDA-N): > 100 µM; TGI (HS 578T breast): 89.9 µM; TGI (UACC-62 melanoma): 27.1 µM; TGI (NCI-H460 lung): > 100 µM; TGI (M14 melanoma): 70.7 µM; TGI (NCI-H522 lung): 43.1 µM; TGI (U251 CNS): 20.5 µM; TGI (HCC-2998 colon): > 100 µM; TGI (HL-60(TB) leukemia): > 100 µM; TGI (EKVX NSCLC): > 100 µM; TGI (NCI/ADR-RES ovarian): > 100 µM; TGI (MCF7 breast): 23.4 µM; TGI (KM12 colon): > 100 µM; TGI (T-47D breast): 27.8 µM; TGI (CCRF-CEM leukemia): > 100 µM; TGI (SF-295 CNS): 32 µM; TGI (K-562 leukemia): > 100 µM; TGI (SF-268 CNS): > 100 µM; TGI (CAKI-1 renal): > 100 µM; TGI (SNB-19 CNS): 21.6 µM; TGI (UO-31 renal): 28.1 µM; TGI (BT-549 breast): 43.5 µM; TGI (TK-10 renal): 64.6 µM; TGI (MALME-3M melanoma): 98.5 µM; TGI (OVCAR-4 ovarian): > 100 µM; TGI (SK-MEL-2 melanoma): 40.8 µM; TGI (HOP-62 NSCLC): 34.9 µM; TGI (MDA-MB-435): > 100 µM; TGI (SK-OV-3 ovarian): 42.9 µM; TGI (SN12C renal): 88.5 µM; TGI (SR leukemia): 40.5 µM; TGI (SK-MEL-5 melanoma): > 100 µM; TGI (MDA-MB-231 breast): 37.9 µM; TGI (A498 renal): 70 µM; TGI (COLO 205 colon): > 100 µM; TGI (LOX IMVI melanoma): 29.8 µM; TGI (UACC-257 melanoma): > 100 µM; TGI (NCI-H23 lung): 36.4 µM; TGI (SW-620 colon): > 100 µM; TGI (NCI-H226 lung): > 100 µM; TGI (HCT-15 colon): > 100 µM; TGI (A549 NSCLC): 23.4 µM

Which TGI (HCT-116 colon) does the source give for `O=C(O)C(=Cc1ccc(-c2ccccc2)cc1)C(=O)O` here?
Its TGI is 24.7 µM.

And the TGI (SNB-75 CNS)?
The TGI was 28 µM.

And the TGI (RXF 393 renal)?
Its TGI is 14.5 µM.

And the TGI (HOP-92 NSCLC)?
Its TGI is over 68.6 µM.

And the TGI (PC-3 prostate)?
Its TGI is 27.6 µM.

And the TGI (RPMI-8226 leukemia)?
Its TGI is 20.6 µM.

What about the TGI (786-0 renal) of the same molecule?
Its TGI is 41.4 µM.

What about the TGI (SF-539 CNS) of the same molecule?
The TGI was 19.3 µM.

What about the TGI (MOLT-4 leukemia) of the same molecule?
Its TGI is 53.6 µM.

And the TGI (ACHN renal)?
The TGI was 60.1 µM.

What about the TGI (IGROV1 ovarian) of the same molecule?
The TGI was over 100 µM.

What about the TGI (DU-145 prostate) of the same molecule?
Its TGI is over 39 µM.

And the TGI (OVCAR-8 ovarian)?
Its TGI is over 92 µM.

What about the TGI (OVCAR-5 ovarian) of the same molecule?
The TGI was over 55.6 µM.

And the TGI (SK-MEL-28 melanoma)?
The TGI was 48.3 µM.

And the TGI (HT29 colon)?
Its TGI is over 49.3 µM.

And the TGI (MDA-N)?
The TGI was over 100 µM.

And the TGI (HS 578T breast)?
The TGI was over 100 µM.

What about the TGI (UACC-62 melanoma) of the same molecule?
The TGI was 26.1 µM.

And the TGI (NCI-H460 lung)?
The TGI was 35.7 µM.

What about the TGI (M14 melanoma) of the same molecule?
Its TGI is 29.5 µM.

What about the TGI (NCI-H522 lung) of the same molecule?
The TGI was 22.8 µM.

And the TGI (U251 CNS)?
Its TGI is 25.9 µM.

What about the TGI (HCC-2998 colon) of the same molecule?
Its TGI is 21.9 µM.

And the TGI (HL-60(TB) leukemia)?
Its TGI is 26.6 µM.

And the TGI (EKVX NSCLC)?
The TGI was over 100 µM.

What about the TGI (NCI/ADR-RES ovarian) of the same molecule?
Its TGI is over 94 µM.

And the TGI (MCF7 breast)?
The TGI was 33.5 µM.

And the TGI (KM12 colon)?
The TGI was 40.9 µM.

What about the TGI (T-47D breast) of the same molecule?
Its TGI is 34 µM.

What about the TGI (CCRF-CEM leukemia) of the same molecule?
The TGI was over 100 µM.

And the TGI (SF-295 CNS)?
Its TGI is 53.3 µM.

And the TGI (K-562 leukemia)?
The TGI was 36.9 µM.

And the TGI (SF-268 CNS)?
The TGI was over 59.3 µM.

What about the TGI (CAKI-1 renal) of the same molecule?
Its TGI is 30 µM.

What about the TGI (SNB-19 CNS) of the same molecule?
The TGI was 37.9 µM.

And the TGI (UO-31 renal)?
Its TGI is 27.6 µM.

And the TGI (BT-549 breast)?
Its TGI is 29.4 µM.

And the TGI (TK-10 renal)?
Its TGI is 30.7 µM.

What about the TGI (MALME-3M melanoma) of the same molecule?
Its TGI is 39.7 µM.

And the TGI (OVCAR-4 ovarian)?
Its TGI is 41.2 µM.

And the TGI (SK-MEL-2 melanoma)?
The TGI was 16.6 µM.

And the TGI (HOP-62 NSCLC)?
Its TGI is 22.5 µM.

And the TGI (MDA-MB-435)?
The TGI was over 64.8 µM.

And the TGI (SK-OV-3 ovarian)?
Its TGI is 41.2 µM.

And the TGI (SN12C renal)?
Its TGI is 35.1 µM.

And the TGI (SR leukemia)?
The TGI was 14.7 µM.

And the TGI (SK-MEL-5 melanoma)?
Its TGI is 23.9 µM.

And the TGI (MDA-MB-231 breast)?
Its TGI is 38.5 µM.

What about the TGI (OVCAR-3 ovarian) of the same molecule?
Its TGI is 17.5 µM.

And the TGI (A498 renal)?
Its TGI is 40 µM.

What about the TGI (COLO 205 colon) of the same molecule?
The TGI was 25.1 µM.

What about the TGI (LOX IMVI melanoma) of the same molecule?
The TGI was 25.9 µM.

And the TGI (UACC-257 melanoma)?
The TGI was 25 µM.

What about the TGI (NCI-H23 lung) of the same molecule?
The TGI was 32.2 µM.

And the TGI (SW-620 colon)?
The TGI was 97.5 µM.

What about the TGI (NCI-H226 lung) of the same molecule?
The TGI was 48.4 µM.

What about the TGI (HCT-15 colon) of the same molecule?
Its TGI is over 61 µM.

And the TGI (A549 NSCLC)?
Its TGI is over 58.8 µM.
